{"source": "patent US10543166B2", "about": "“Implantable drug delivery devices and methods of making the same” (TARIS Biomedical LLC, priority 2009, dated 2020)", "key": {"[1]": {"test": "In vitro drug release through both the wall and apertures of silicone tube devices", "assay_type": "physicochemical", "details": "in vitro in water at about 37° C", "experimental": "Another study was performed to investigate the feasibility of delivering drug from a device through both a wall of a drug reservoir and from an aperture in the wall of the drug reservoir. Devices were formed form silicone tubes having a length of about 3 cm. The devices were loaded with solid drug tablets of lidocaine base, for a total payload of about 60 mg. […] The devices were tested in vitro in water at about 37° C."}, "[2]": {"test": "In vitro drug release by diffusion through the wall of silicone tube devices", "assay_type": "physicochemical", "details": "silicone tube ID about 0.060 in, OD 0.076 in, length about 3 cm; solid tablets, payload about 60 mg; no aperture; in vitro in water at about 37° C", "experimental": "A study was performed to determine the feasibility of delivering drug through the wall of a drug reservoir via diffusion. Devices were formed form silicone tubes having an inner diameter of about 0.060 inches, an outer diameter of 0.076 inches, and a length of about 3 cm. The devices were loaded with solid drug tablets of lidocaine, for a total payload of about 60 mg. Some of the devices included an aperture formed through the tube wall, the aperture having a diameter of 150 μm. These devices were loaded with solid tablets of either lidocaine hydrochloride monohydrate or a combination of lidocaine hydrochloride monohydrate and lidocaine base. […] The devices were tested in vitro in water at about 37° C."}}}
{"smiles": "CCN(CC)CC(=O)Nc1c(C)cccc1C", "note": "[lidocaine base]", "values": [{"measurement": "effect of apertures on release rate", "setting": "[1]; devices with 0, 1 (150 μm), 2, 30 or 60 (360 μm) apertures", "result": "release rate can be increased by adding apertures to the device"}, {"measurement": "release from a silicone tube without any apertures", "setting": "[1]; silicone tubes about 3 cm, solid tablets, payload about 60 mg", "result": "can be released from a silicone tube without any apertures"}, {"measurement": "delivery of drug via diffusion through a silicone wall without an aperture", "setting": "[2]", "result": "feasible to deliver drug via diffusion through a silicone wall without an aperture"}]}
